Like-named read-outs stand apart in the source and are kept apart here.
Legend:
[1] = test system: POLR2A Ser2 phosphorylation (CDK9); experiment: POLR2A Ser2 phosphorylation imaging assay in MCF-7 cells; format: cell-based; settings: Homo sapiens, MCF7, 2 h, read-out: POLR2A Ser2 phosphorylation IC50
Outline: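 MCF-7 cells were fixed, permeabilised and immunostained for POLR2A phospho-Ser2, then imaged by high-content microscopy. Levels were normalised to controls and IC50 values derived.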

[2] = test system: MCF-7 cells; experiment: Cellular proliferation EdU assay, MCF-7; format: cell-based; settings: Homo sapiens, MCF7, 48 h, EdU assay, two days; read-out: MCF-7 IC50
Outline: (§1)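 MCF-7 (800 cells/well) and OVCAR3 (1200 cells/well) in RPMI with 10% FBS exposed to compounds for two days at 37 °C.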

[3] = test system: OVCAR3 cells; experiment: Cellular proliferation EdU assay, OVCAR3; format: cell-based, human; settings: Homo sapiens, OVCAR-3, 48 h, EdU assay, two days; read-out: OVCAR3 IC50
Outline: as §1

[4] = Aqueous thermodynamic solubility, shake-flask; format: physicochemical; settings: aqueous phosphate buffer, 25 °C, pH 7.4, aqueous buffer, thermodynamic from solid, phosphate buffer 0.1 M, pH 7.4, 24 hours
Outline: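 Dried compound (after DMSO evaporation) was equilibrated in 0.1 M phosphate buffer pH 7.4 with stirring for 24 h at 25° C. Undissolved material was removed by double centrifugation, and the supernatant was diluted in water and quantified by UPLC/MS/MS.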

[5] = target: 379 non-CDK kinase (or non-CDK kinase-complex) targets; experiment: Kinase profiling (SelectScreen, ThermoFisher); format: biochemical; settings: compared with Compound 6
Text: Test compounds were profiled against a broad panel of kinases at ThermoFisher Scientific using the SelectScreen Kinase Profiling Services. Each kinase assay used one of the following assay technology protocols: • 1) Z-LYTE™ Screening Protocol and Assay Conditions (Revised 23 Jan. 2018 version) available at http://assets.thermofisher.com/TFS-Assets/BID/Methods-&-Protocols/20180123_SSBK_Customer_Protocol_and_Assay_Conditions.pdf; • 2) Adapta™ Screening Protocol and Assay Conditions (Revised 23 Jan. 2018 version) available at http://assets.thermofisher.com/TFS-Assets/BID/Methods-&-Protocols/20180123_SSBK_Adapta_Customer_Protocol_and_Assay_Conditions.pdf; or • 3) LanthaScreen™ Eu Kinase Binding Assay Screening Protocol and Assay Conditions (Revised 23 Jan. 2018 version) available at http://assets.thermofisher.com/TFS-Assets/BID/Methods-&-Protocols/20180123_SSBK_LanthaScreen_Binding_Customer_Protocol_and_Assay_Co nditions.pdf.

[6] = test system: 97 targets (GPCRs, ion channels, transporters, enzymes, kinases); experiment: Secondary pharmacology panel (Eurofins CEREP); settings: compared with Compound 6
Description: Secondary pharmacology assays were performed at Eurofins CEREP using standard experimental techniques. Specifically, radioligand binding assays were used to assess the ability of test compounds to interact with G-protein coupled receptors (GPCRs), ion channels, and transmembrane transporters. Assays measuring substrate turnover or phosphorylation by isolated proteins were used for enzyme and kinase targets, allowing direct determination of the mode of action of the tested compounds.

[7] = target: CDK2:CCNE1 (Homo sapiens (Human), UniProt P24941); experiment: NanoBRET assay in MCF-7 cells, CDK2; format: cell-based; settings: transfected MCF-7 cells, 2 hours, n = 1 or average
Outline: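 In live MCF-7 cells, compound added followed by NanoBRET TE Tracer K-9 (stock 200 μM) for CDK2, 2 h at 37° C, 5% CO2.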

[8] = target: CDK1:CCNB1 (Homo sapiens (Human), UniProt P06493); experiment: NanoBRET assay in MCF-7 cells, CDK1; format: cell-based; settings: NanoBRET, transfected MCF-7 cells, 2 hours; n = 1 or average; read-out: CDK1 IC50
Outline: (§2)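 Transiently transfected MCF-7 cells expressing CDK1:CCNB1 or CDK4:CCND1 were treated with compound plus tracer (CDK1: Tracer K-9, 400 μM stock; CDK4: Tracer K-7, 100 μM stock) for 2 h at 37 °C.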

[9] = target: CDK4:CCND1 (Homo sapiens (Human), UniProt P11802); experiment: NanoBRET assay in MCF-7 cells, CDK4; format: cell-based; settings: NanoBRET, transfected MCF-7 cells, 2 hours; n = 1 or average; read-out: CDK4 IC50
Outline: as §2

[10] = test system: NPM phosphorylation (Thr199, CDK2-cyclin E complex); experiment: NPM phosphorylation imaging assay in MCF-7 cells; format: cell-based; settings: Homo sapiens, MCF7, 2 h, 4N DNA cells
Outline: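 MCF-7 cells were fixed, permeabilised and immunostained, then imaged for phospho-NPM (Thr199), a CDK2-cyclin E site. Analysis was gated on 4N-DNA cells by Hoechst staining. Signals were normalised to controls and fitted for IC50.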

[11] = test system: OVCAR3 cells; experiment: Cell proliferation CyQUANT assay, OVCAR3; format: cell-based; settings: Homo sapiens, OVCAR-3, 168 h; CyQUANT cell counts, 7 days
Description: (§3) An imaging-based assay was used to investigate changes in cell number in OVCAR3 cells (CCNE1-amplified ovarian cancer cell line) and SKOV3 cells (non-amplified ovarian cancer cell line) treated with test compounds.
(§4) Cells were plated in 384 well plates (Perkin-Elmer 6057300) in RPMI-1640/10% FBS/1× L-Glu at 500 cells per well in 30 μL and incubated with test compound at 37° C. and 5% CO2 for 7 days. Cells were then stained using the CyQuant Direct Cell Proliferation Assay Kit (Thermo Cat #C7026) in accordance with the kit protocol. The stained cells were imaged using an Operetta high content imager to generate cell counts and IC50 values were calculated relative to DMSO controls.

[12] = test system: SKOV3 cells; experiment: Cell proliferation CyQUANT assay, SKOV3; format: cell-based; settings: Homo sapiens, SK-OV-3, 168 h; CyQUANT cell counts, 7 days
Description: as §3, §4

[13] = test system: OVCAR3 human ovarian cancer xenograft; experiment: Anti-tumor effect in CCNE1 amplified ovarian xenograft model OVCAR3; format: in vivo, mice
Description: 15 Million OVCAR3 human ovarian cells were implanted subcutaneously in the right flank of female CB17 SCID mice. Mice were randomized into groups of 8 when average tumor volume reached approximately 160 mm^3. […] Palbociclib was dosed orally once daily.

[14] = test system: CTG-3298 human CDK4/6 resistant ER+ breast cancer xenograft; experiment: Anti-tumor effect in CTG-3298 CDK4/6 resistant ER+ breast cancer xenograft model; format: in vivo, mice; settings: Palbociclib at 50 mg/kg orally once daily, 28 days
Description: CTG-3298 ER+ breast xenograft tumors were harvested from donor mice and cut into fragments approximately 50 mm^3 in volume and then reimplanted adjacent to the #3 mammary fat pad.
CTG-3298 ER+ Breast PDX fragments were implanted orthotopically adjacent to the #3 mammary fat pad using a 10-gauge trocar in female NSG mice. […] Palbociclib was dosed orally once daily.

[15] = test system: CTG-3283 human CDK4/6 resistant ER+ breast cancer xenograft; experiment: Anti-tumor effect in CTG-3283 CDK4/6 resistant ER+ breast cancer xenograft model; format: in vivo, mice; settings: Palbociclib at 50 mg/kg orally once daily, 28 days
Description: CTG-3283 ER+ breast xenograft tumors were harvested from donor mice and cut into fragments approximately 50 mm^3 in volume and then reimplanted adjacent to the #3 mammary fat pad.
CTG-3283 ER+ Breast PDX fragments were implanted orthotopically adjacent to the #3 mammary fat pad using a 10-gauge trocar in female NSG mice. […] Palbociclib was dosed orally once daily.

[16] = test system: OVCAR3 cells; experiment: Senescence β-galactosidase assay, OVCAR3; format: cell-based, human; settings: 5 days, single agent
Description: Cells were then stained with a fluorescent dye to detect senescence-associated β-galactosidase (CellEvent Senescence Green detection kit, Thermo #C10850), diluted 1:1000 in the provided buffer, and incubated at 37° C. for 2 hours without CO2 in accordance with the manufacturer's instructions. DNA staining was performed using Hoechst 33342, diluted 1:2500 in PBS, for 15 minutes at room temperature, followed by two washes with PBS. Sample imaging was performed on a PerkinElmer Operetta CLS at lOX magnification to detect Hoechst 33342 (nuclei) and Alexa488 (senescence stain). Image analysis was performed in Harmony 4.1 software (PerkinElmer) to identify cells based on nuclear staining. Mean Alexa488 fluorescence intensity was measured within each cell, and the average was taken across all cells observed within each well. […] Data fitting was performed using Genedata Screener (Genedata AG) and combination effect was assessed using the highest single agent (HSA) model.

[17] = test system: OVCAR3 cells; experiment: Effect on cell cycle in OVCAR3 cell line (flow cytometry); format: cell-based, human; settings: 20 to 24 hours, 0.03, 0.1, 0.3, 1, and 3 μM
Description: Compounds were tested in the CCNE1-amplified ovarian cell line OVCAR3 to assess their effect on cell cycle phases G1 and S and potential off-target effects on cell cycle phases G2 and M.
OVCAR3 cells were seeded at 60,000 cells per well in 24 well plates, 4 wells per sample, in RPMI with 10% Fetal bovine serum. Test compounds were diluted in 96 well plates in dimethyl sulfoxide (DMSO) and then added to the wells containing the cells. The 24 well plates were placed in an incubator maintained at 37° C. and 5% CO2 and incubated for 20 to 24 hours. The next day an EdU assay was performed following the manufacturer's protocol (Thermo Fisher, C10425 EdU Alexa Fluor 488). Antibody staining was carried out using PE Mouse Anti-Cleaved PARP (BD Biosciences Catalog No. 552933) and 4′,6-diamidino-2-phenylindole (DAPI). Cells were then analyzed by flow cytometry.

Sequence of CDK4:CCND1 (P11802 whole entry): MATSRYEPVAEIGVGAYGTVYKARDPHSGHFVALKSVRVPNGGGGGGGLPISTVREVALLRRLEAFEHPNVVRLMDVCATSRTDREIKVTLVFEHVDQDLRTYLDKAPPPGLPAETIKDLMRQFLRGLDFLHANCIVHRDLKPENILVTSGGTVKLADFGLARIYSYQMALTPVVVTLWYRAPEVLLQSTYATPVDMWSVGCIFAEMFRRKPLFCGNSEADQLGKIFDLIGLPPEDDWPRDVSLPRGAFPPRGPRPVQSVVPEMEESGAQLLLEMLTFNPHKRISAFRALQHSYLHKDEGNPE
Sequence of CDK4:CCND1 (P24385 whole entry partner): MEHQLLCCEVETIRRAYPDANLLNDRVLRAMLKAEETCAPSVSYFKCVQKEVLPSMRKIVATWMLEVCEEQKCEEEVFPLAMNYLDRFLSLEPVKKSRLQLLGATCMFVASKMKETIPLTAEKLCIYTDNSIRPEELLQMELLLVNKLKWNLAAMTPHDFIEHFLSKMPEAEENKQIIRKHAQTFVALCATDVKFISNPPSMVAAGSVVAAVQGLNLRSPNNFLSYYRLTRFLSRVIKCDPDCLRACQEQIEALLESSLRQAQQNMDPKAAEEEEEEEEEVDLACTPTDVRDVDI
Sequence of CDK1:CCNB1 (P06493 whole entry): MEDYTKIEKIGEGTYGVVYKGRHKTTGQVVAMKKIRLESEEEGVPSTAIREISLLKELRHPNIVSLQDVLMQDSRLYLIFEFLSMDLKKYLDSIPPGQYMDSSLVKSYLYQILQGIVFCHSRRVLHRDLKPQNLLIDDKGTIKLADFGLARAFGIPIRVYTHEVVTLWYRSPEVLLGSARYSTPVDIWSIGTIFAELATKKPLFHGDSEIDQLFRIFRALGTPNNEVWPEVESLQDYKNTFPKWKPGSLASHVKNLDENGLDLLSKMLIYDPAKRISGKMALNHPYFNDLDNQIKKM
Sequence of CDK1:CCNB1 (P14635 whole entry partner): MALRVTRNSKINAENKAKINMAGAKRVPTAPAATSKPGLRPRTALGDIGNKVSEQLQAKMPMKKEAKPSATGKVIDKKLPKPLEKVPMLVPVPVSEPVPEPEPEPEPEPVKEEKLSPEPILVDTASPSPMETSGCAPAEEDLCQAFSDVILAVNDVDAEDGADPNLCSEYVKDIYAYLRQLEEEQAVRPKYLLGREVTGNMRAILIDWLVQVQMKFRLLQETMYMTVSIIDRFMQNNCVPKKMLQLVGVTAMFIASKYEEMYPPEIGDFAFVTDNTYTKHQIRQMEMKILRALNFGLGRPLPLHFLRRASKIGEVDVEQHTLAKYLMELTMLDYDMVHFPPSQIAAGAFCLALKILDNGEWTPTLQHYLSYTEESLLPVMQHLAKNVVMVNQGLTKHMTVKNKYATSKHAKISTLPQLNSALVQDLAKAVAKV

Row | IC50 ([1]; MCF-7 cells, 2 hours) [nM] | IC50 [2] [nM] | IC50 [3] [nM] | IC50 [11] [nM] | IC50 [12] [nM] | SMILES | kinase inhibition profile [5] | further results
1 | > 30000 | 1400 | 441 | – | – | CC[C@H](Nc1nc(N[C@H]2CCN(S(=O)(=O)c3ccn[nH]3)C2)c2ncn(CC)c2n1)[C@@H](C)O [Example 62, (2R,3S)-3-((6-(((S)-1-((1H-pyrazol-5-yl)sulfonyl)pyrrolidin-3-yl)amino)-9-ethyl-9H-purin-2-yl)amino)pentan-2-ol] | broadly similar kinase inhibition profiles to Compound 6 | solubility at 24 h [4]: > 1000 µM; secondary pharmacology profile [6]: broadly similar secondary pharmacology to Compound 6
2 | > 29100 | 592 | 242 | 133 | 9150 | CC[C@H](Nc1nc(N[C@H]2CCN(S(=O)(=O)NC)C2)c2ncn(CC)c2n1)[C@@H](C)O [Example 44, (S)-3-((9-ethyl-2-(((2R,3S)-2-hydroxypentan-3-yl)amino)-9H-purin-6-yl)-amino)-N-methylpyrrolidine-1-sulfonamide] | broadly similar kinase inhibition profiles to Compound 6 | –

The remaining lines, values behind:

Row | SMILES | IC50 ([1]; MCF-7 cells, 2 hours) [nM] | IC50 [2] [nM] | IC50 [3] [nM] | IC50 [11] [nM] | IC50 [12] [nM] | kinase inhibition profile [5] | further results
3 | O=S(=O)(c1ncc[nH]1)N1C[C@@H](F)[C@H](Nc2nc(N[C@@H](CO)C3CC3)nc3c2ncn3C(F)F)C1 (relative stereo) [Example 61, (R)-2-((6-(((3R*,4R*)-1-((1H-imidazol-2-yl)sulfonyl)-4-fluoropyrrolidin-3-yl)amino)-9-(difluoromethyl)-9H-purin-2-yl)amino)-2-cyclopropylethan-1-ol] | 1700 | – | 53 | 34 | 514 | – | IC50 [7]: 5 nM; IC50 [8]: 115 nM; IC50 [9]: 800 nM; IC50 [10]: 17 nM
4 | CC(=O)c1c(C)c2cnc(Nc3ccc(N4CCNCC4)cn3)nc2n(C2CCCC2)c1=O [Palbociclib, reference compound] | – | – | – | – | – | – | % INHIBITION ([13]; Palbociclib at 50 mg/kg orally once daily, 28 days): 9%; % INHIBITION (end of dosing) [14]: 49%; % INHIBITION (end of dosing) [15]: 46%; induction of senescence [16]: no effect was observed
5 | CC(C)[C@H](CO)Nc1nc(N[C@H]2CCN(S(C)(=O)=O)C2)c2ncn(C(C)C)c2n1 [Compound 20, (R)-2-((9-isopropyl-6-(((S)-1-(methylsulfonyl)pyrrolidin-3-yl)amino)-9H-purin-2-yl)amino)-3-methylbutan-1-ol] | – | 665 | 224 | 188 | 2520 | broadly similar kinase inhibition profiles to Compound 6 | IC50 [1]: > 30000 nM; activity and tolerability in xenograft model ([13]; OVCAR3 xenograft): active and well tolerated; effect on cell cycle phase [17]: increased the population of cells in the G0 and G1 phases

— patent US20250197425A1, “2,6,9-TRISUBSTITUTED PURINES” (ASTRAZENECA AB, priority 2022, published 2025)
